Results as given in patent publication US20060041123A1, “Antibacterial agents” (priority 2002, published 2006).
Where a name gives a salt, the structure may show the parent alone. Read-outs that look alike come from different tables or passages of the source.

Experiment: Antimicrobial activity assay: whole-cell MIC by broth microdilution (NCCLS M7-A6)
Format: cell-based
Procedure: Whole-cell antimicrobial activity was determined by broth microdilution using the National Committee for Clinical Laboratory Standards (NCCLS) recommended procedure, Document M7-A6, “Methods for Dilution Susceptibility Tests for Bacteria that Grow Aerobically”. The compounds were tested in serial two-fold dilutions ranging from 0.016 to 16 mcg/mL. Compounds were evaluated against a panel of Gram-positive organisms, including Staphylococcus aureus WCUH29, Streptococcus pneumoniae 1629, Streptococcus pyogenes CN 10, and Enterococcus faecalis 2. In addition, compounds were evaluated against a panel of Gram-negative strains including Haemophilus influenzae NEMC1, E. coli 7623, and Moraxella catarrhalis Ravasio. The minimum inhibitory concentration (MIC) was determined as the lowest concentration of compound that inhibited visible growth. A mirror reader was used to assist in determining the MIC endpoint.
Compounds of the present invention have MIC's ≦20 μg/ml versus all the organisms named above.

[1] = versus all the organisms named above (S. aureus WCUH29, S. pneumoniae 1629, S. pyogenes CN 10, E. faecalis 2, H. influenzae NEMC1, E. coli 7623, M. catarrhalis Ravasio), read-out: MIC

| Compound | MIC [1] [µg/mL] | MIC [µg/mL] |
| --- | --- | --- |
| COc1cc(F)c2ncc(F)c(CCN3CC[C@H](NCc4ccc5c(n4)NC(=O)CS5)[C@H](F)C3)c2c1.Cl.Cl (single isomer, unassigned; enantiomer 1) [Example 149, cis-6-{[(-1-{2-[3,8-difluoro-6-(methoxy)-4-quinolinyl]ethyl}-3-fluoro-4-piperidinyl)amino]methyl}-2H-pyrido[3,2-b][1,4]thiazin-3(4H)-one dihydrochloride, Enantiomer 1] | ≤ 2 |  |
| COc1cc(F)c2ncc(F)c(CCN3CC[C@H](NC(=O)c4ccc5c(n4)NC(=O)CS5)[C@H](F)C3)c2c1.Cl (single isomer, unassigned; enantiomer 1) [Example 151, cis-N-(1-{2-[3,8-difluoro-6-(methoxy)-4-quinolinyl]ethyl}-3-fluoro-4-piperidinyl)-3-oxo-3,4-dihydro-2H-pyrido[3,2-b][1,4]thiazine-6-carboxamide hydrochloride Enantiomer 1] | ≤ 2 |  |
| COc1ccc2ncc(Cl)c(CCN3CC[C@@H](NCc4ccc5c(n4)NC(=O)CO5)[C@H](O)C3)c2n1.Cl.Cl.Cl (single isomer, unassigned; enantiomer 1) [Example 153, trans-6-({1-[2-(3-Chloro-6-methoxy-[1,5]naphthyridin-4-yl)-ethyl]-3-hydroxy-piperidin-4-ylamino}-methyl)-4H-pyrido[3,2-b][1,4] oxazin-3-one trihydrochloride Enantiomer 1] | ≤ 2 |  |
| COc1ccc2ncc(Cl)c(CCN3CC[C@@H](NCc4cc5c(cn4)OCCO5)[C@H](O)C3)c2n1 (single isomer, unassigned; enantiomer 1) [Example 154, trans-1-{2-[3-chloro-6-(methoxy)-1,5-naphthyridin-4-yl]ethyl}-4-[(2,3-dihydro[1,4]dioxino[2,3-c]pyridin-7-ylmethyl)amino]-3-piperidinol Enantiomer 1] | ≤ 2 |  |
| COc1ccc2ncc(F)c(C(O)CN3CCC(NCc4cc5c(cn4)OCCO5)CC3)c2c1.Cl.Cl (single isomer, unassigned; enantiomer 1) [Example 156, 2-{4-[(2,3-dihydro[1,4]dioxino[2,3-c]pyridin-7-ylmethyl)amino]-1-piperidinyl}-1-[3-fluoro-6-(methoxy)-4-quinolinyl]ethanol dihydrochloride Enantiomer 1] | ≤ 2 |  |
| COc1ccc2ncc(Cl)c(CCN3CC[C@H](NCc4ccc5c(n4)NC(=O)CO5)[C@H](O)C3)c2c1 (single isomer, unassigned; enantiomer 2) [Example 6, 6-({(cis)-1-[2-(3-Chloro-6-methoxy-quinolin-4-yl)-ethyl]-3-hydroxy-piperidin-4-ylamino}-methyl)-4H-pyrido[3,2-b][1,4]oxazin-3-one Dihydrochloride Enantiomer 2] | ≤ 2 |  |
| COc1ccc2ncc(Cl)c(CCN3CC[C@H](NCc4ccc5c(n4)NC(=O)CS5)[C@H](O)C3)c2c1 (single isomer, unassigned; enantiomer 2) [Example 8, 6-({(cis)-1-[2-(3-Chloro-6-methoxy-quinolin-4-yl)-ethyl]-3-hydroxy-piperidin-4-ylamino}-methyl)-4H-pyrido[3,2-b][1,4]thiazin-3-one Dihydrochloride Enantiomer 2] | ≤ 2 |  |
| COc1ccc2ncc(Cl)c(CCN3CC[C@H](NCc4ccc5c(n4)NC(=O)CO5)[C@H](O)C3)c2n1.Cl.Cl (single isomer, unassigned; enantiomer 2) [Example 10, 6-({(cis)-1-[2-(3-Chloro-6-methoxy-[1,5]naphthyridin-4-yl)-ethyl]-3-hydroxy-piperidin-4-ylamino}-methyl)-4H-pyrido[3,2-b][1,4]oxazin-3-one Dihydrochloride Enantiomer 2] | ≤ 2 |  |
| COc1ccc2ncc(Cl)c(CCN3CC[C@@H](NCc4ccc5c(n4)NC(=O)CS5)[C@H](O)C3)c2c1.Cl.Cl.Cl (single isomer, unassigned; enantiomer 2) [Example 17, 6-({(trans)-1-[2-(3-Chloro-6-methoxyquinolin-4-yl)ethyl]3-hydroxypiperidin-4-ylamino}methyl)-4H-pyrido[3,2-b][1,4]thiazin-3-one Trihydrochloride enantiomer 2] | ≤ 2 |  |
| COc1ccc2ncc(Cl)c(CCN3CC[C@@H](NCc4ccc5c(n4)NC(=O)CO5)[C@H](O)C3)c2c1.Cl.Cl.Cl (single isomer, unassigned; enantiomer 2) [Example 18, 6-({(trans)-1-[2-(3-Chloro-6-methoxyquinolin-4-yl)ethyl]3-hydroxypiperidin-4-ylamino}methyl)-4H-pyrido[3,2-b][1,4]oxazin-3-one Trihydrochloride enantiomer 2] | ≤ 2 |  |
| COc1ccc2ncc(Cl)c(CCN3CC[C@@H](NCc4ccc5c(n4)NC(=O)CS5)[C@H](O)C3)c2n1.Cl.Cl (single isomer, unassigned; enantiomer 2) [Example 39, (trans)-6-({1-[2-(3-Chloro-6-methoxy-[1,5]naphthyridin-4-yl)-ethyl]-3-hydroxy-piperidin-4-ylamino}-methyl)-4H-pyrido[3,2-b][1,4]-thiazin-3-one Dihydrochloride Enantiomer 2] | ≤ 2 |  |
| COc1ccc2ncc(F)c(CCN3CC[C@@H](NCc4ccc5c(n4)NC(=O)CS5)[C@@H](O)C3)c2n1.Cl.Cl (single isomer, unassigned; enantiomer 2) [Example 70] |  | ≤ 2 |
| COc1ccc2ncc(F)c(C(O)CN3CCC(NCc4cc5c(cn4)OCCO5)CC3)c2n1.Cl.Cl.O (single isomer, unassigned; enantiomer 2) [Example 100, 2-{4-[(2,3-Dihydro[1,4]dioxino[2,3-c]pyridin-7-ylmethyl)amino]-1-piperidinyl}-1-[3-fluoro-6-(methoxy)-1,5-naphthyridin-4-yl]ethanol Dihydrochloride Hydrate Enantiomer 2] | ≤ 2 |  |
| COc1cc(F)c2ncc(F)c(CCN3CC[C@H](NCc4cc5c(cn4)OCCO5)[C@H](F)C3)c2c1.Cl.Cl (single isomer, unassigned; enantiomer 2) [Example 144, cis-1-{2-[3,8-difluoro-6-(methoxy)-4-quinolinyl]ethyl}-N-(2,3-dihydro[1,4]dioxino[2,3-c]pyridin-7-ylmethyl)-3-fluoro-4-piperidinamine dihydrochloride Enantiomer 2] | ≤ 2 |  |
| COc1ccc2ncc(F)c(CCN3CC[C@@H](NCc4cc5c(cn4)OCCO5)[C@@H](O)C3)c2n1.Cl.Cl (single isomer, unassigned; enantiomer 2) [Example 158] | ≤ 2 |  |
| COc1ccc2ncc(Cl)c(CCN3CCC(NCc4cc5c(cn4)OCCO5)CC3)c2n1.Cl.Cl [Example 3, {1-[2-(3-Chloro-6-methoxy-[1,5]naphthyridin-4-yl)-ethyl]-piperidin-4-yl}-(2,3-dihydro-[1,4]dioxino[2,3-c]pyridin-7-ylmethyl)-amine Dihydrochloride] | ≤ 2 |  |
| COc1ccc2ncc(Cl)c(CCN3CCC(NCc4cc5c(cn4)OCCO5)CC3)c2c1.Cl.Cl [Example 4, {1-[2-(3-Chloro-6-methoxy-quinolin-4-yl)-ethyl]-piperidin-4-yl}-(2,3-dihydro-[1,4]dioxino[2,3-c]pyridin-7-ylmethyl)-amine Dihydrochloride] | ≤ 2 |  |
| COc1ccc2ncc(Cl)c(CCN3CCC(NCc4ccc5c(n4)NC(=O)CS5)CC3)c2c1.Cl.Cl.Cl [Example 13, 6-({1-[2-(3-Chloro-6-methoxyquinolin-4-yl)ethyl]piperidin-4-ylamino}methyl)-4H-pyrido[3,2-b][1,4]thiazin-3-one Trihydrochloride] | ≤ 2 |  |
| COc1ccc2ncc(Cl)c(CCN3CCC(CO)(NCc4ccc5c(n4)NC(=O)CS5)CC3)c2c1.Cl.Cl [Example 21, 6-({1-[2-(3-Chloro-6-methoxyquinolin-4-yl)ethyl]4-hydroxymethylpiperidin-4-ylamino}methyl)-4H-pyrido[3,2-b][1,4]thiazin-3-one Dihydrochloride] | ≤ 2 |  |
| COc1c(F)ccc2ncc(Cl)c(CCN3CCC(NCc4ccc5c(n4)NC(=O)CS5)CC3)c12.Cl.Cl [Example 22, 6-({1-[2-(3-Chloro-6-fluoro-5-methoxy-quinolin-4-yl)-ethyl]-piperidin-4-ylamino}-methyl)-4H-pyrido[3,2-b][1,4]thiazin-3-one Dihydrochloride] | ≤ 2 |  |
| Cc1ccc2ncc(Cl)c(CCN3CCC(NCc4ccc5c(n4)NC(=O)CS5)CC3)c2n1.Cl.Cl [Example 23, 6-({1-[2-(3-Chloro-6-methyl-[1,5]naphthyridin-4-yl)-ethyl]-piperidin-4-ylamino}-methyl)-4H-pyrido[3,2-b][1,4]thiazin-3-one Dihydrochloride] | ≤ 2 |  |
| Cl.Cl.O=C1CSc2ccc(CNC3CCN(CCc4c(Cl)cnc5ccc(F)cc45)CC3)nc2N1 [Example 25, 6-({1-[2-(3-Chloro-6-fluoro-quinolin-4-yl)-ethyl]-piperidin-4-ylamino}-methyl)-4H-pyrido[3,2-b][1,4]thiazin-3-one Dihydrochloride] | ≤ 2 |  |
| Cl.Cl.Fc1ccc2ncc(Cl)c(CCN3CCC(NCc4cc5c(cn4)OCCO5)CC3)c2c1 [Example 26, {1-[2-(3-Chloro-6-fluoro-quinolin-4-yl)-ethyl]-piperidin-4-yl}(2,3-dihydro[1,4]dioxino[2,3-c]pyridin-7-ylmethyl)-amine Dihydrochloride] | ≤ 2 |  |
| Cl.Cl.O=C1CSc2ccc(CNC3CCN(CCc4c(Cl)cnc5ccc(Cl)cc45)CC3)nc2N1 [Example 27, 6-({1-[2-(3,6-Dichloro-quinolin-4-yl)-ethyl]-piperidin-4-ylamino}-methyl)-4H-pyrido[3,2-b][1,4]thiazin-3-one Dihydrochloride] | ≤ 2 |  |
